The values below come from PMC10880585 (ACS infectious diseases, 2023).

The subject of data set [1] is P. falciparum strain 3D7. As to the kind of experiment: P. falciparum growth inhibition assay. In kind it is cell-based, Plasmodium falciparum. As to conditions: read-out: Pf IC50.
Data set [2] concerns HepG2 cells. As to the kind of experiment: HepG2 cytotoxicity assay. The conditions noted are these: for IC50: Homo sapiens, HepG2, 24 h, read-out: HepG2 IC50; for cytotoxicity against HepG2: result in words.
Data set [3] relates to P. falciparum strain 3D7. As to the kind of experiment: IPP rescue of P. falciparum growth inhibition. The conditions noted are these: 250 μM IPP added to culture media, 72 h.
A short description of data set [4]: Metabolic stability in mouse liver microsomes.
The subject of data set [5] is HAD1 mutant P. falciparum strain. As to the kind of experiment: Growth inhibition of had1 mutant P. falciparum. In kind it is cell-based, Plasmodium falciparum. As to conditions: had1 mutant vs wild-type 3D7.
For data set [6] the following is noted: following iv dosing; cited from earlier work.
Data set [7] concerns the target T1, P. falciparum DXR (Plasmodium falciparum, UniProt O96693).
T1 sequence (O96693 73-488): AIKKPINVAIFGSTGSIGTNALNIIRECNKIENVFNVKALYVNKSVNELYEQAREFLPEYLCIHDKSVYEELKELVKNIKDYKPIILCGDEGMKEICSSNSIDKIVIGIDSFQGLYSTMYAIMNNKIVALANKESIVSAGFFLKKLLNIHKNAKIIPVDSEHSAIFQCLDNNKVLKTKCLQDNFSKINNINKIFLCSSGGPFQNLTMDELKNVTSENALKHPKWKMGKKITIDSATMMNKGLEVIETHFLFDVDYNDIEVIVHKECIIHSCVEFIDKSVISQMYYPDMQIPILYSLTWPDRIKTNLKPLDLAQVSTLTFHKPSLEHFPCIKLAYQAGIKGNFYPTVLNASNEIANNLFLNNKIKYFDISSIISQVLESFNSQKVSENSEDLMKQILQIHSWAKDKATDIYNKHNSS

Data set [8] deals with T1, P. falciparum DXR. In words: biochemical.
The mark [9] stands for this setting: Plasmodium falciparum, 3D7, Erythrocyte, 72 h.

The structures appear in SMILES notation. Like-named read-outs stand apart in the source and are kept apart here. Where only a bound is given, the exact number is not on record here.

As for `CCOP(=O)(/C=C/CN(O)C(=O)c1ccccc1)OCC` [10a, Diethyl [(1E)-3-(N-Hydroxy-1-phenylformamido)prop-1-en-1-yl]phosphonate], the IC50 in data set [1] (setting [9]) was more than 319000 nM.
As for `CC(C)(C)C(=O)OCOP(=O)(/C=C/CN(O)C(=O)c1ccccc1)OCOC(=O)C(C)(C)C` [13a, [({[(2,2-Dimethylpropanoyl)oxy]methoxy}[(1E)-3-(N-hydroxy-1-phenylformamido)-prop-1-en-1-yl]phosphoryl)oxy]-methyl 2,2-dimethylpropanoate], in data set [1] (setting [9]), the IC50 came to 200 nM. For the same compound, in data set [2], the IC50 is more than 50000 nM and the “cytotoxicity against HepG2” value is reported as “non-toxic”. Moreover, in data set [3], the “rescue of treated parasites by IPP” value is “rescued”. The compound further yielded a half-life at 1 μM in data set [4] (mouse, liver microsomes, pH 7.4) of less than 5 min. In addition, the “resistance of parasites with elevated intracellular DXP” value (“resistance of parasites” for short) in data set [5] is “resistant”.
Turning to `CC(=O)N(O)CCCP(=O)(O)O` [compound 2, FR-900098, reference compound], the IC50 in data set [1] ([…], 3 days, PicoGreen) came out at 511 nM.
For `O=CN(O)CCCP(=O)(O)O` [compound 1, Fosmidomycin, reference compound], the IC50 in data set [1] (setting [9]) was found to be 1020 nM. The “rescue of treated parasites by IPP” value in data set [3] is “rescued”. Moreover, the “resistance of parasites” value in data set [5] is recorded as “higher resistance”. For the same compound, in data set [6], the renal excretion is listed as 85%.
In the case of `CCOP(=O)(/C=C/CN(O)C(=O)CCc1ccccc1)OCC` [10c, Diethyl [(1E)-3-(N-Hydroxy-3-phenylpropanamido)prop-1-en-1-yl]phosphonate], the IC50 in data set [1] (setting [9]) is more than 293000 nM.
Regarding `N.N.O=C(c1ccccc1)N(O)C/C=C/P(=O)(O)O` [compound 11a, Diammonium [(1E)-3-(N-Hydroxy-1-phenylformamido)-prop-1-en-1-yl]phosphonate], the IC50 in data set [1] (setting [9]) was found to be 369 nM. In addition, in data set [2], the IC50 is more than 50000 nM and the “cytotoxicity against HepG2” value was “non-toxic”. Moreover, the “rescue of treated parasites by IPP” value in data set [3] is given as “rescued”. Moreover, in data set [4] (mouse liver microsomes), the “time stable in MLM” value is “over 1 h”. In addition, the “resistance of parasites” value in data set [5] was “resistant”. For the same compound, in data set [7] (11a vs saturated compound 4), the “improvement in activity against the enzyme” value is recorded as 2 fold.
As for `CC(C)(C)C(=O)OCOP(=O)(/C=C/CN(O)C(=O)CCCc1ccccc1)OCOC(=O)C(C)(C)C` [13d, [({[(2,2-Dimethylpropanoyl)oxy]methoxy}[(1E)-3-(N-hydroxy-4-phenylbutanamido)prop-1-en-1-yl]phosphoryl)-oxy]methyl 2,2-Dimethylpropanoate], the IC50 in data set [1] (setting [9]) was determined as 4550 nM.
As to `O=C(CCCc1ccccc1)N(O)C/C=C/P(=O)(O)O` [11d, Sodium Hydrogen [(1E)-3-(N-Hydroxy-4-phenylbutanamido)prop-1-en-1-yl]phosphonate], the figures for the IC50 in data set [1] (setting [9]) and in data set [7] (read-out: Pf DXR IC50) were 4980 nM and 898 nM, respectively.
`O=C(CCc1ccccc1)N(O)C/C=C/P(=O)(O)O` [11c, Sodium Hydrogen [(1E)-3-(N-hydroxy-3-phenylpropanamido)prop-1-en-1-yl]phosphonate]: the IC50 is 10800 nM in data set [1] (setting [9]) and 1340 nM in data set [8].
Consider `CCOP(=O)(/C=C/CN(O)C(=O)Cc1ccccc1)OCC` [10b, Diethyl [(1E)-3-(N-Hydroxy-2-phenylacetamido)prop-1-en-1-yl]phosphonate], for which the IC50 in data set [1] (setting [9]) came to 337000 nM.
Take `O=C(Cc1ccccc1)N(O)C/C=C/P(=O)(O)O` [11b, Sodium Hydrogen [(1E)-3-(N-Hydroxy-2-phenylacetamido)prop-1-en-1-yl]phosphonate]: the IC50 is 468 nM in data set [1] (setting [9]) and 170 nM in data set [8].
With `CC(C)(C)C(=O)OCOP(=O)(/C=C/CN(O)C(=O)Cc1ccccc1)OCOC(=O)C(C)(C)C` [13b, [({[(2,2-Dimethylpropanoyl)oxy]methoxy}[(1E)-3-(N-hydroxy-2-phenylacetamido)prop-1-en-1-yl]phosphoryl)oxy]-methyl 2,2-Dimethylpropanoate], in data set [1] (setting [9]), the IC50 turned out to be 304 nM.
The same measure, in the same setting: as for `CCOP(=O)(/C=C/CN(O)C(=O)CCCc1ccccc1)OCC` [10d, Diethyl [(1E)-3-(N-Hydroxy-4-phenylbutanamido)prop-1-en-1-yl]phosphonate], the figure is 31200 nM.
